Assay results reported in patent US10406135B2, “Compositions containing isosorbide monoester and alcohols that contain at least one aromatic group” (Clariant International Ltd., priority 2011, dated 2019).
Like-named read-outs stand apart in the source and are kept apart here.

Columns and labels:
Aspergillus brasiliensis = test: Antimicrobial efficacy, minimum inhibitory concentration (MIC) in agar; format: cell-based; details: Sabouraud 4% dextrose agar pH 5.6, read-out: MIC of isosorbide
Experimental: (§1) Below, the antimicrobial efficacy of a composition according to the invention consisting of 50% by weight of isosorbide caprylate 1 and 50% by weight of phenoxyethanol against bacteria, fungi and yeasts is examined (hereinbelow, the composition is referred to as “composition A”). For the tests with bacteria, composition A was diluted with butyl polyglycol and then, at 50° C., added to liquid CASO agar (casein-peptone agar) buffered to pH 7 (+/−0.2) in various concentrations (hereinbelow referred to as compositions B1, B2, etc.). For the tests with fungi and yeasts, composition A was diluted with butyl polyglycol and then added to liquid Sabouraud 4% dextrose agar buffered to pH 5.6 (+/−0.2) in various concentrations (hereinbelow referred to as compositions PH1, PH2, etc.). The compositions B1, B2, etc. and PH1, PH2 etc. were each poured into Petri dishes and each inoculated with identical amounts of bacteria, fungi and yeasts. The minimum inhibitory concentration (MIC) is the concentration at which inhibition of the growth of the bacteria, fungi and yeasts in the compositions B1, B2, etc. and PH1, PH2, etc. occurs.
(§2) The minimum inhibitory concentrations for the pure substances isosorbide caprylate 1 and phenoxyethanol were determined analogously. […]
(§3) The values determined for the minimum inhibitory concentrations “QA” and “QB”, stated in Table 1 below, have already been corrected for the dilution effect of the butyl polyglycol. […]
(§4) Analogously to the determination of the antimicrobial activity according to the above example B), the antimicrobial activity of a mixture comprising, firstly, 89.6% by weight of isosorbide dicaprylate and 9.4% by weight of isosorbide monocaprylate (remainder: 1% by weight) (hereinbelow referred to as “isosorbide dicaprylate”) and, secondly, pure isosorbide was determined in further test series.

Pseudomonas aeruginosa = test: as above; format: cell-based; details: CASO agar pH 7, read-out: MIC of isosorbide
Experimental: as §1, §2, §3, §4

Aspergillus terreus = test: as above; format: cell-based; details: Sabouraud 4% dextrose agar pH 5.6, read-out: MIC of isosorbide
Experimental: as §1, §2, §3, §4

Penicillium funicolosium = test: as above; format: cell-based; details: Sabouraud 4% dextrose agar pH 5.6, read-out: MIC of isosorbide
Experimental: as §1, §2, §3, §4

Proteus vulgaris = test: as above; format: cell-based; details: CASO agar pH 7, read-out: MIC of isosorbide
Experimental: as §1, §2, §3, §4

Escherichia coli = test: as above; format: cell-based; details: CASO agar pH 7, read-out: MIC of isosorbide
Experimental: as §1, §2, §3, §4

Enterobacter aerogenes = test: as above; format: cell-based; details: Klebsiella aerogenes, CASO agar pH 7, read-out: MIC of isosorbide
Experimental: as §1, §2, §3, §4

Klebsiella pneumoniae = test: as above; format: cell-based; details: CASO agar pH 7, read-out: MIC of isosorbide
Experimental: as §1, §2, §3, §4

Fusarium solani = test: as above; format: cell-based; details: Sabouraud 4% dextrose agar pH 5.6, read-out: MIC of isosorbide
Experimental: as §1, §2, §3, §4

Candida albicans = test: as above; format: cell-based; details: Sabouraud 4% dextrose agar pH 5.6, read-out: MIC of isosorbide
Experimental: as §1, §2, §3, §4

Penicillium minioluteum = test: as above; format: cell-based; details: Talaromyces minioluteus, Sabouraud 4% dextrose agar pH 5.6, read-out: MIC of isosorbide
Experimental: as §1, §2, §3, §4

Citrobacter freundii = test: as above; format: cell-based; details: CASO agar pH 7, read-out: MIC of isosorbide
Experimental: as §1, §2, §3, §4

[1] = system: bacteria, fungi and yeasts; test: Antimicrobial efficacy, summary statements over the organisms tested; format: cell-based
Experimental: Below, the antimicrobial efficacy of a composition according to the invention consisting of 50% by weight of isosorbide caprylate 1 and 50% by weight of phenoxyethanol against bacteria, fungi and yeasts is examined (hereinbelow, the composition is referred to as “composition A”). For the tests with bacteria, composition A was diluted with butyl polyglycol and then, at 50° C., added to liquid CASO agar (casein-peptone agar) buffered to pH 7 (+/−0.2) in various concentrations (hereinbelow referred to as compositions B1, B2, etc.). For the tests with fungi and yeasts, composition A was diluted with butyl polyglycol and then added to liquid Sabouraud 4% dextrose agar buffered to pH 5.6 (+/−0.2) in various concentrations (hereinbelow referred to as compositions PH1, PH2, etc.). […]
as §2, §4

Pseudomonas oleovorans = test: Antimicrobial efficacy, minimum inhibitory concentration (MIC) in agar; format: cell-based; details: Ectopseudomonas oleovorans, CASO agar pH 7, read-out: MIC of isosorbide
Experimental: (§5) Below, the antimicrobial efficacy of a composition according to the invention consisting of 50% by weight of isosorbide caprylate 1 and 50% by weight of phenoxyethanol against bacteria, fungi and yeasts is examined (hereinbelow, the composition is referred to as “composition A”). For the tests with bacteria, composition A was diluted with butyl polyglycol and then, at 50° C., added to liquid CASO agar (casein-peptone agar) buffered to pH 7 (+/−0.2) in various concentrations (hereinbelow referred to as compositions B1, B2, etc.). […]
(§6) The minimum inhibitory concentrations for the pure substances isosorbide caprylate 1 and phenoxyethanol were determined analogously.
(§7) The values determined for the minimum inhibitory concentrations “MIC mixture”, stated in Table 1 below, are based on the concentrations of composition A.
as §3, §4

Staphylococcus aureus = test: as above; format: cell-based; details: CASO agar pH 7, read-out: MIC of isosorbide
Experimental: as §5, §6, §7, §3, §4

[2] = system: bacteria, fungi and yeasts; details: general statement, no test described, cited from earlier work

## O[C@@H]1CO[C@H]2[C@@H]1OC[C@@H]2O [isosorbide]
Aspergillus brasiliensis
  MIC: 10000 µg/mL
Pseudomonas aeruginosa
  MIC: 10000 µg/mL
Aspergillus terreus
  MIC: 10000 µg/mL
Penicillium funicolosium
  MIC: 10000 µg/mL
Proteus vulgaris
  MIC: 10000 µg/mL
Escherichia coli
  MIC: 10000 µg/mL
Enterobacter aerogenes
  MIC: 10000 µg/mL
Klebsiella pneumoniae
  MIC: 10000 µg/mL
Fusarium solani
  MIC: 10000 µg/mL
Candida albicans
  MIC: 10000 µg/mL
Penicillium minioluteum
  MIC: 10000 µg/mL
Citrobacter freundii
  MIC: 10000 µg/mL
[1]; summary of the MICs of Table 2
  antimicrobial activity (in words): neither isosorbide nor isosorbide dicaprylate are antimicrobially active
Pseudomonas oleovorans
  MIC: 10000 µg/mL
Staphylococcus aureus
  MIC: 10000 µg/mL

## isosorbide monocaprylate
[1]; concluded from Tables 1 and 2, not tested as pure compound
  antimicrobial activity (in words): significant antimicrobial activity

## CCCCCCCC(=O)O [caprylic acid]
[2]; at a pH of 6 or above
  antimicrobial activity (in words): no antimicrobial activity
[2]
  antimicrobial activity (in words): antimicrobially effective
